From ChEMBL document CHEMBL3885881, “DrugMatrix”

Species: Rattus norvegicus
Test: DrugMatrix - Regimen: Daily Repeat
Type: toxicity, organism-based, Sprague-Dawley
Parameters: regimen Daily Repeat, gender Male, age 6-8 weeks
Settings: in vivo, po, route oral GAVAGE, vehicle .5 % CMC; for ABSOLUTE BASOPHIL / ABSOLUTE EOSINOPHIL / ABSOLUTE LYMPHOCYTE / ABSOLUTE MONOCYTE / ABSOLUTE SEGMENTED NEUTROPHIL / BASOPHIL / EOSINOPHIL / ERYTHROCYTE COUNT / HEMATOCRIT / HEMOGLOBIN / LEUKOCYTE COUNT / LYMPHOCYTE / MEAN CORPUSCULAR HEMOGLOBIN / MEAN CORPUSCULAR HEMOGLOBIN CONCENTRATION / MEAN CORPUSCULAR VOLUME / MONOCYTE / NEUTROPHIL / NUCLEATED RED BLOOD CELLS / PLATELET COUNT: tissue Blood; for ALANINE AMINOTRANSFERASE / ALBUMIN / ALKALINE PHOSPHATASE / ASPARTATE AMINOTRANSFERASE / BLOOD UREA NITROGEN / CARBON DIOXIDE / CHLORIDE / CHOLESTEROL / CREATINE PHOSPHOKINASE / CREATININE / GLUCOSE / LACTATE DEHYDROGENASE / LIPASE / PHOSPHORUS / POTASSIUM / SODIUM / TOTAL BILIRUBIN / TOTAL PROTEIN / URIC ACID: tissue Plasma
[1] = 17 mg/kg, 120 h, dose level Low, time 5 day
[2] = 85 mg/kg, 72 h, dose level High, time 3 day
[3] = 85 mg/kg, 120 h, dose level High, time 5 day

CN1CCN(CCCN2c3ccccc3Sc3ccc(Cl)cc32)CC1 [PROCHLORPERAZINE]
ABSOLUTE BASOPHIL [1]: 0 CELLS/uL
ABSOLUTE EOSINOPHIL [1]: 40 CELLS/uL
ABSOLUTE LYMPHOCYTE [1]: 12867.33 CELLS/uL
ABSOLUTE MONOCYTE [1]: 40 CELLS/uL
ABSOLUTE SEGMENTED NEUTROPHIL [1]: 986 CELLS/uL
BASOPHIL [1]: 0%
EOSINOPHIL [1]: 0.33%
ERYTHROCYTE COUNT [1]: 5.56 x10E6/uL
HEMATOCRIT [1]: 36.13%
HEMOGLOBIN [1]: 14.37 G/DL
LEUKOCYTE COUNT [1]: 13.93 x10E3/uL
LYMPHOCYTE [1]: 92.33%
MEAN CORPUSCULAR HEMOGLOBIN [1]: 25.87 pg
MEAN CORPUSCULAR HEMOGLOBIN CONCENTRATION [1]: 39.77 G/DL
MEAN CORPUSCULAR VOLUME [1]: 65.13 fL
MONOCYTE [1]: 0.33%
NEUTROPHIL [1]: 7%
NUCLEATED RED BLOOD CELLS [1]: 0 /100WBC
PLATELET COUNT [1]: 1289.67 x10E3/uL
ALANINE AMINOTRANSFERASE [1]: 45.33 u/L
ALBUMIN [1]: 4.27 G/DL
ALKALINE PHOSPHATASE [1]: 464.33 u/L
ASPARTATE AMINOTRANSFERASE [1]: 85 u/L
BLOOD UREA NITROGEN [1]: 15.33 mg/dL
CARBON DIOXIDE [1]: 27.33 mmol/L
CHLORIDE [1]: 100.67 MEQ/L
CHOLESTEROL [1]: 75.67 mg/dL
CREATINE PHOSPHOKINASE [1]: 372 u/L
CREATININE [1]: 0.12 mg/dL
GLUCOSE [1]: 141.67 mg/dL
LACTATE DEHYDROGENASE [1]: 401 u/L
LIPASE [1]: 9 u/L
PHOSPHORUS [1]: 12.43 mg/dL
POTASSIUM [1]: 6.4 MEQ/L
SODIUM [1]: 143.33 MEQ/L
TOTAL BILIRUBIN [1]: 0.17 mg/dL
TOTAL PROTEIN [1]: 6.1 G/DL
URIC ACID [1]: 1.33 mg/dL
ABSOLUTE BASOPHIL [2]: 0 CELLS/uL
ABSOLUTE EOSINOPHIL [2]: 81.33 CELLS/uL
ABSOLUTE LYMPHOCYTE [2]: 10099 CELLS/uL
ABSOLUTE MONOCYTE [2]: 0 CELLS/uL
ABSOLUTE SEGMENTED NEUTROPHIL [2]: 453 CELLS/uL
BASOPHIL [2]: 0%
EOSINOPHIL [2]: 0.67%
ERYTHROCYTE COUNT [2]: 6.34 x10E6/uL
HEMATOCRIT [2]: 40.77%
HEMOGLOBIN [2]: 16.03 G/DL
LEUKOCYTE COUNT [2]: 10.63 x10E3/uL
LYMPHOCYTE [2]: 95.33%
MEAN CORPUSCULAR HEMOGLOBIN [2]: 25.3 pg
MEAN CORPUSCULAR HEMOGLOBIN CONCENTRATION [2]: 39.37 G/DL
MEAN CORPUSCULAR VOLUME [2]: 64.3 fL
MONOCYTE [2]: 0%
NEUTROPHIL [2]: 4%
NUCLEATED RED BLOOD CELLS [2]: 1 /100WBC
PLATELET COUNT [2]: 1132 x10E3/uL
ALANINE AMINOTRANSFERASE [2]: 31.33 u/L
ALBUMIN [2]: 4.87 G/DL
ALKALINE PHOSPHATASE [2]: 290 u/L
ASPARTATE AMINOTRANSFERASE [2]: 67.33 u/L
BLOOD UREA NITROGEN [2]: 24 mg/dL
CARBON DIOXIDE [2]: 22.67 mmol/L
CHLORIDE [2]: 108 MEQ/L
CHOLESTEROL [2]: 89 mg/dL
CREATINE PHOSPHOKINASE [2]: 161.33 u/L
CREATININE [2]: 0.2 mg/dL
GLUCOSE [2]: 145.67 mg/dL
LACTATE DEHYDROGENASE [2]: 143.33 u/L
LIPASE [2]: 8 u/L
PHOSPHORUS [2]: 11.93 mg/dL
POTASSIUM [2]: 6.09 MEQ/L
SODIUM [2]: 150.37 MEQ/L
TOTAL BILIRUBIN [2]: 0.2 mg/dL
TOTAL PROTEIN [2]: 7.03 G/DL
URIC ACID [2]: 2.53 mg/dL
ABSOLUTE BASOPHIL [3]: 0 CELLS/uL
ABSOLUTE EOSINOPHIL [3]: 0 CELLS/uL
ABSOLUTE LYMPHOCYTE [3]: 10951.33 CELLS/uL
ABSOLUTE MONOCYTE [3]: 241 CELLS/uL
ABSOLUTE SEGMENTED NEUTROPHIL [3]: 641 CELLS/uL
BASOPHIL [3]: 0%
EOSINOPHIL [3]: 0%
ERYTHROCYTE COUNT [3]: 6.41 x10E6/uL
HEMATOCRIT [3]: 38.7%
HEMOGLOBIN [3]: 15.23 G/DL
LEUKOCYTE COUNT [3]: 11.83 x10E3/uL
LYMPHOCYTE [3]: 92.67%
MEAN CORPUSCULAR HEMOGLOBIN [3]: 23.73 pg
MEAN CORPUSCULAR HEMOGLOBIN CONCENTRATION [3]: 39.33 G/DL
MEAN CORPUSCULAR VOLUME [3]: 60.37 fL
MONOCYTE [3]: 2%
NEUTROPHIL [3]: 5.33%
NUCLEATED RED BLOOD CELLS [3]: 0 /100WBC
PLATELET COUNT [3]: 1133 x10E3/uL
ALANINE AMINOTRANSFERASE [3]: 46.33 u/L
ALBUMIN [3]: 4.37 G/DL
ALKALINE PHOSPHATASE [3]: 354.33 u/L
ASPARTATE AMINOTRANSFERASE [3]: 99.67 u/L
BLOOD UREA NITROGEN [3]: 21.33 mg/dL
CARBON DIOXIDE [3]: 24.67 mmol/L
CHLORIDE [3]: 105.67 MEQ/L
CHOLESTEROL [3]: 84.67 mg/dL
CREATINE PHOSPHOKINASE [3]: 760.33 u/L
CREATININE [3]: 0.23 mg/dL
GLUCOSE [3]: 146 mg/dL
LACTATE DEHYDROGENASE [3]: 421 u/L
LIPASE [3]: 9 u/L
PHOSPHORUS [3]: 11.03 mg/dL
POTASSIUM [3]: 6.4 MEQ/L
SODIUM [3]: 147.97 MEQ/L
TOTAL BILIRUBIN [3]: 0.27 mg/dL
TOTAL PROTEIN [3]: 6.17 G/DL
URIC ACID [3]: 1.8 mg/dL
